Patent EP2881391A1, “Spiroindoline carbocycle derivatives and pharmaceutical compositions thereof” (Bayer Pharma Aktiengesellschaft, priority 2013, dated 2015)
pIC50: −log10 of the molar value.

Molecular target: T1, human GnRH receptor (Homo sapiens, UniProt P30968)
T1 construct: line established by Prof; Thomas Gudermann; host or cells: CHO cells
T1 sequence (P30968 1-328): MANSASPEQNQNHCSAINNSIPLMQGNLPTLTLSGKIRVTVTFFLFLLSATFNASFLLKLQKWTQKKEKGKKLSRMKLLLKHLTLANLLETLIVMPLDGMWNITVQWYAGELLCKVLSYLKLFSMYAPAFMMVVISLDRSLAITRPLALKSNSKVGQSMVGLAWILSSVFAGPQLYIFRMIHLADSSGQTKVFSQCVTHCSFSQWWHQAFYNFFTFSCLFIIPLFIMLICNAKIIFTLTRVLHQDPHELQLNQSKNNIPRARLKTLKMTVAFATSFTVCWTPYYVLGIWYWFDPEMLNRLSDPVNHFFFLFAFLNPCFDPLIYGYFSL
Assay: IP-One HTRF assay (inhibition of GnRH-R activation by buserelin)
Assay type: cell-based
Conditions: IP-One HTRF assay with buserelin (at EC80) stimulation; CHO cells stably expressing human GnRH receptor; tested 20 µM to 1 nM; read-out: Potency IC50
How it was run: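 CHO cells stably expressing human GnRH-R, pre-incubated 20 min at 22°C with compound (10 concentrations, 20 µM to 1 nM, duplicates), then stimulated 1 h at 37°C with buserelin or LHRH at EC50 or EC80 in pH 7.4 buffer with 50 mM LiCl. IP1 read by HTRF 665/620 nm ratio; IC50 by 4-parameter fit.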

Row | SMILES | pIC50
1 | COc1cccc(S(=O)(=O)N2c3ccc(C(=O)NCc4ncccc4Cl)cc3C3(CCC(O)(C(F)(F)F)CC3)C2C2CC2)c1 (stereo not shown) [Example 45, N-[(3-chloropyridin-2-yl)methyl]-2'-cyclopropyl-4-hydroxy-1'-[(3-methoxyphenyl)su Ifonyl]-4-(trifluoromethyl)-1',2'-dihydrospiro[cyclohexane-1,3'-indole]-5'-carboxamide] | 6.12
2 | CS(=O)(=O)c1cccc(NC(=O)c2ccc3c(c2)C2(CCC(O)(C(F)(F)F)CC2)C(C2CC2)N3S(=O)(=O)c2ccc(F)cc2)c1 (stereo not shown) [Example 46, 2'-cyclopropyl-1'-[(4-fluorophenyl)sulfonyl]-4-hydroxy-N-[3-(methylsulfonyl)phenyl]-4-(trifluoromethyl)-1',2'-dihydrospiro[cyclohexane-1,3'-indole]-5'-carboxamide] | 6.27
3 | NS(=O)(=O)c1cccc(NC(=O)c2ccc3c(c2)C2(CCC(O)(C(F)(F)F)CC2)C(C2CC2)N3S(=O)(=O)c2ccc(F)cc2)c1 (stereo not shown) [Example 47, 2'-cyclopropyl-1 [(4-fluorophenyl)sulfonyl]-4-hydroxy-N-(3-sulfamoylphenyl)-4-(trifluoromethyl)-1',2'-dihydrospiro[cyclohexane-1,3'-indole]-5'-carboxamide] | 6.21
4 | O=C(O)c1cccc(S(=O)(=O)N2c3ccc(C(=O)Nc4ccon4)cc3C3(CCC(O)(C(F)(F)F)CC3)C2C2CC2)c1 (stereo not shown) [Example 48, 3-{[2'-cyclopropyl-4-hydroxy-5'-(1,2-oxazol-3-ylcarbamoyl)-4-(trifluoromethyl)spiro[cyclohexane-1,3'-indol]-1'(2'H)-yl]sulfonyl}benzoic acid] | 5.17
5 | O=C(O)c1cccc(S(=O)(=O)N2c3ccc(C(=O)NCc4ncc(C(F)(F)F)cc4F)cc3C3(CCC(O)(C(F)(F)F)CC3)C2C2CC2)c1 (stereo not shown) [Example 49, 3-{[2'-cyclopropyl-5'-({[3-fluoro-5-(trifluoromethyl)pyridin-2-yl]methyl}carbamoyl)-4-hydroxy-4-(trifluoromethyl)spiro[cyclohexane-1,3'-indol]-1'(2'H)-yl]sulfonyl}benzoic acid] | 5.37
6 | O=C(O)c1cccc(S(=O)(=O)N2c3ccc(C(=O)NCc4ncccc4C(F)(F)F)cc3C3(CCC(O)(C(F)(F)F)CC3)C2C2CC2)c1 (stereo not shown) [Example 50, 3-{[2'-cyclopropyl-4-hydroxy-4-(trifluoromethyl)-5'-({[3-(trifluoromethyl)pyridin-2-yl]methyl}carbamoyl)spiro[cyclohexane-1,3'-indol]-1'(2'H)-yl]sulfonyl}benzoic acid] | 5.51
7 | O=C(NC1(c2ccc(Cl)cc2)CC1)c1ccc2c(c1)C1(CCC(O)(C(F)(F)F)CC1)C(C1CC1)N2S(=O)(=O)c1ccc(F)cc1 (stereo not shown) [Example 51, N-[1-(4-chlorophenyl)cyclopropyl]-2'-cyclopropyl-1'-[(4-fluorophenyl)sulfonyl]-4-hydroxy-4-(trifluoromethyl)-1',2'-dihydrospiro[cyclohexane-1,3'-indole]-5'-carboxamide] | 6.26
8 | O=C(Nc1cc[nH]n1)c1ccc2c(c1)C1(CCC(O)(C(F)(F)F)CC1)C(C1CC1)N2S(=O)(=O)c1ccc(F)cc1 (stereo not shown) [Example 52, 2'-cyclopropyl-1'-[(4-fluorophenyl)sulfonyl]-4-hydroxy-N-(1H-pyrazol-3-yl)-4-(trifluoromethyl)-1',2'-dihydrospiro[cyclohexane-1,3'-indole]-5'-carboxamide] | 6.15
9 | O=C(NC1CCc2ccccc21)c1ccc2c(c1)C1(CCC(O)(C(F)(F)F)CC1)C(C1CC1)N2S(=O)(=O)c1ccc(F)cc1 (stereo not shown) [Example 53, 2'-cyclopropyl-N-(2,3-dihydro-1H-inden-1-yl)-1'-[(4-fluorophenyl)sulfonyl]-4-hydroxy-4-(trifluoromethyl)-1',2'-dihydrospiro[cyclohexane-1,3'-indole]-5'-carboxamide] | 6.21
10 | O=C(Nc1cccc(C(F)(F)F)c1)c1ccc2c(c1)C1(CCC(O)(C(F)(F)F)CC1)C(C1CC1)N2S(=O)(=O)c1ccc(F)cc1 (stereo not shown) [Example 54, 2'-cyclopropyl-1 [(4-fluorophenyl)sulfonyl]-4-hydroxy-4-(trifluoromethyl)-N-[3-(trifluoromethyl)phenyl]-1',2'-dihydrospiro[cyclohexane-1,3'-indole]-5'-carboxamide] | 5.63
11 | O=C(Nc1cccc(Cl)c1)c1ccc2c(c1)C1(CCC(O)(C(F)(F)F)CC1)C(C1CC1)N2S(=O)(=O)c1ccc(F)cc1 (stereo not shown) [Example 55, N-(3-chlorophenyl)-2'-cyclopropyl-1'-[(4-fluorophenyl)sulfonyl]-4-hydroxy-4-(trifluoromethyl)-1',2'-dihydrospiro[cyclohexane-1,3'-indole]-5'-carboxamide] | 6.15
12 | O=C(Nc1ccon1)c1ccc2c(c1)C1(CCC(O)(C(F)(F)F)CC1)C(C1CC1)N2S(=O)(=O)c1ccc(F)cc1 (stereo not shown) [Example 56, 2'-cyclopropyl-1' [(4-fluorophenyl)sulfonyl]-4-hydroxy-N-(1,2-oxazol-3-yl)-4-(trifluoromethyl)-1',2'-dihydrospiro[cyclohexane-1,3'-indole]-5'-carboxamide] | 6.54
13 | O=C(Nc1ccon1)c1ccc2c(c1)C1(CCC(O)(C(F)(F)F)CC1)C(C1CC1)N2S(=O)(=O)c1cccc(C(=O)N2CCC2)c1 (stereo not shown) [Example 57, 1'-{[3-(azetidin-1-ylcarbonyl)phenyl]sulfonyl}-2'-cyclopropyl-4-hydroxy-N-(1,2-oxazol-3-yl)-4-(trifluoromethyl)-1',2'-dihydrospiro[cyclohexane-1,3'-indole]-5'-carboxamide] | 5.91
14 | O=C(Nc1cncc(C(F)(F)F)c1)c1ccc2c(c1)C1(CCC(O)(C(F)(F)F)CC1)C(C1CC1)N2S(=O)(=O)c1ccc(F)cc1 (stereo not shown) [Example 58, 2'-cyclopropyl-1'-[(4-fluorophenyl)sulfonyl]-4-hydroxy-4-(trifluoromethyl)-N-[5-(trifluoromethyl)pyridin-3-yl]-1',2'-dihydrospiro[cyclohexane-1,3'-indole]-5'-carboxamide] | 5.51
15 | O=C(NCC1CC1)c1ccc2c(c1)C1(CCC(O)(C(F)(F)F)CC1)C(C1CC1)N2S(=O)(=O)c1ccc(F)cc1 (stereo not shown) [Example 59, 2'-cyclopropyl-N-(cyclopropylmethyl)-1'-[(4-fluorophenyl)sulfonyl]-4-hydroxy-4-(trifluoromethyl)-1',2'-dihydrospiro[cyclohexane-1,3'-indole]-5'-carboxamide] | 6.16
16 | O=C(NCc1ccc(F)cc1Cl)c1ccc2c(c1)C1(CCC(O)(C(F)(F)F)CC1)C(C1CC1)N2S(=O)(=O)c1ccc(F)cc1 (stereo not shown) [Example 60, N-(2-chloro-4-fluorobenzyl)-2'-cyclopropyl-1'-[(4-fluorophenyl)sulfonyl]-4-hydroxy-4-(trifluoromethyl)-1',2'-dihydrospiro[cyclohexane-1,3'-indole]-5'-carboxamide] | 6.36
17 | O=C(NCC1CCCCC1)c1ccc2c(c1)C1(CCC(O)(C(F)(F)F)CC1)C(C1CC1)N2S(=O)(=O)c1ccc(F)cc1 (stereo not shown) [Example 61, N-(cyclohexylmethyl) -2'-cyclopropyl-1'-[(4-fluorophenyl)sulfonyl]-4-hydroxy-4-(trifluoromethyl)-1',2'-dihydrospiro[cyclohexane-1,3'-indole]-5'-carboxamide] | 6.13
18 | O=C(NCc1ccccc1Cl)c1ccc2c(c1)C1(CCC(O)(C(F)(F)F)CC1)C(C1CC1)N2S(=O)(=O)c1ccc(F)cc1 (stereo not shown) [Example 62, N-(2-chlorobenzyl)-2'-cyclopropyl-1'-[(4-fluorophenyl)sulfonyl]-4-hydroxy-4-(trifluoromethyl)-1',2'-dihydrospiro[cyclohexane-1,3'-indole]-5'-carboxamide] | 6.60
19 | O=C(NCc1ncc(C(F)(F)F)cc1F)c1ccc2c(c1)C1(CCC(O)(C(F)(F)F)CC1)C(C1CC1)N2S(=O)(=O)c1cccc(C(=O)N2CCC2)c1 (stereo not shown) [Example 63, 1'-{[3-(azetidin-1-ylcarbonyl)phenyl]sulfonyl}-2'-cyclopropyl-N-{[3-fluoro-5-(trifluoromethyl)pyridin-2-yl]methyl}-4-hydroxy-4-(trifluoromethyl)-1',2'-dihydrospiro[cyclohexane-1,3'-indole]-5'-carboxamide] | 5.49
20 | O=C(NCc1ncc(F)cc1Cl)c1ccc2c(c1)C1(CCC(O)(C(F)(F)F)CC1)C(C1CC1)N2S(=O)(=O)c1ccc(F)cc1 (stereo not shown) [Example 64, N-[(3-chloro-5-fluoropyridin-2-yl)methyl]-2'-cyclopropyl-1'-[(4-fluorophenyl)sulfonyl]-4-hydroxy-4-(trifluoromethyl)-1',2'-dihydrospiro[cyclohexane-1,3'-indole]-5'-carboxamide] | 6.28
21 | O=C(NCc1ncccc1C(F)(F)F)c1ccc2c(c1)C1(CCC(O)(C(F)(F)F)CC1)C(C1CC1)N2S(=O)(=O)c1ccc(F)cc1 (stereo not shown) [Example 65, 2'-cyclopropyl-1'-[(4-fluorophenyl)sulfonyl]-4-hydroxy-4-(trifluoromethyl)-N-{[3-(trifluoromethyl)pyridin-2-yl]methyl}-1',2'-dihydrospiro[cyclohexane-1,3'-indole]-5'-carboxamide] | 6.51
22 | O=C(NCc1ncccc1C(F)(F)F)c1ccc2c(c1)C1(CCC(O)(C(F)(F)F)CC1)C(C1CC1)N2S(=O)(=O)c1cccc(C(=O)N2CCC2)c1 (stereo not shown) [Example 66, 1'-{[3-(azetidin-1-ylcarbonyl)phenyl]sulfonyl}-2'-cyclopropyl-4-hydroxy-4-(trifluoromethyl)-N-{[3-(trifluoromethyl)pyridin-2-yl]methyl}-1',2'-dihydrospiro[cyclohexane-1,3'-indole]-5'-carboxamide] | 5.66
